Data taken from PubChem BioAssay AID2742 (NMMLSC, 2010).
Values joined by “and” are separate entries in the source; they are usually repeats but may differ in a detail not shown here. Identical values can stand only once. Active and inactive are the calls of the source.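 The calls were made as follows: active = fitted half-maximal concentration for changing background-corrected GFP signal at or below a set limit; inactive = the rest.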

Assay: TOR pathway reporter MEP2-GFP, concentration series – S. cerevisiae, flow cytometry GFP, MLPCN hits, dose response (AID 2742);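 also: GFP tag reports level of MEP2 protein as a downstream target of TOR signalling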
Conditions: S. cerevisiae MEP2-GFP strain, flow cytometry fluorescence, 3 h; at 33 µM (top of the series)

| SMILES | GFP fluorescence (kMESF), higher = increase |
| --- | --- |
| Oc1ccc2ccccc2c1N=Nc1nccs1 | 4.97 kMESF (inactive) |
| Cc1sc(/C=C2\C(=O)ON=C2c2ccccc2)cc1Br | 1.67 kMESF (inactive) |
| CCN(CC(=O)Nc1cc(S(=O)(=O)N2CCOCC2)ccc1Cl)Cc1ccccc1 | 2.25 kMESF (inactive) |
| C=C1C(O)[C@@H]2O[C@]3(CC[C@H](/C=C/C(C)[C@@H]4CC(C)=CC5(O[C@H](C[C@@](C)(O)C(=O)O)CCC5O)O4)O3)CC[C@H]2O[C@@H]1C(O)CC(C)[C@H]1OC2(CCCCO2)CCC1C (some centres not stated) | 1.77 kMESF (inactive) |
| COc1ccc(NC2=C(Cl)C(=O)N(CCc3ccccc3)C2=O)cc1 | 2.7 kMESF (inactive) |
| Cc1ccc(S(=O)(=O)c2ncccc2[N+](=O)[O-])cc1 | 3.64 kMESF (inactive) |
| Cc1ccc(C(=O)O/N=C(\N)Cc2cccs2)c(Cl)c1 | 4.31 kMESF (inactive) |
| CCOC(=O)c1c(C)oc2c1c(C(c1cccnc1)N1CCOCC1)c(O)c1ccccc12 (configuration not stated) | 4.43 kMESF (inactive) |
| O=c1c2sc(-c3ccccc3)cc2nc2n1CCC2 | 3.03 kMESF (inactive) |
| CC(=O)Oc1oc(-c2ccccc2)nc1C=Nc1ccc(N(C)C)cc1 | 3.44 kMESF (inactive) |
| O=C(Nc1nc2ccc(F)cc2s1)c1ccccn1 | 3.71 kMESF (inactive) |
| C#CCOc1c(Br)cc(/C=C2/C(=O)ON=C2C)cc1OC | 3.64 kMESF (inactive) |
| CC(=O)Nc1ncnc2c1c(-c1ccc(Cl)cc1)nn2C(C)(C)C | 2.08 kMESF (inactive) |
| Cc1ccc(C(=O)Oc2oc(-c3ccccc3)nc2C=Nc2ccc(N(C)C)cc2)cc1 | 4.19 kMESF (inactive) |
| Cc1ccc(N/N=C(\C#N)C(N)=S)c(C)c1 | 4.52 kMESF (inactive) |
| Cn1c(=O)c(C(=O)NNC(=O)c2ccc(Br)cc2)c(O)c2ccccc21 | 3.4 kMESF (inactive) |
| CCOc1ccc(C(C)=O)cc1N1C(=O)C2C3C=CC(O3)C2C1=O (configuration not stated) | 3.31 kMESF (inactive) |
| CCn1c(=O)c(C(C)=O)c(O)c2ccccc21 | 3.81 kMESF (inactive) |
| Cc1nc2ccc(NC(=O)c3oc4ccc(F)cc4c3C)cc2s1 | 2.07 kMESF (inactive) |
| COc1cc(SSc2cc(OC)cc([N+](=O)[O-])c2N)c(N)c([N+](=O)[O-])c1 | 5.29 kMESF (inactive) |
| O=C1N(c2ccccc2C(F)(F)F)O[C@]1(c1ccccc1)C1CCCC1 | 2.4 kMESF (inactive) |

| SMILES | GFP fluorescence (kMESF), higher = increase |
| --- | --- |
| CCN(CC)c1ccc2cc(-c3nc(-c4ccc(OC)cc4)cs3)c(=O)oc2c1 | 0.72 kMESF (inactive) |
| COc1cc(/C=C2\C(=O)ON=C2c2ccccc2)cc(Br)c1O | 4.31 kMESF (inactive) |
| Cc1cc(C)c2c(c1)/C(=C/C(=O)c1ccc(Br)s1)C(=O)N2 | 3.51 kMESF (inactive) |
| Cc1ccc(C(=O)O)cc1N=Cc1cc(Br)cc(Br)c1O | 5.7 kMESF (inactive) |
| CCC(=O)Oc1oc(-c2ccccc2)nc1C=Nc1ccccc1OC | 2.69 kMESF (inactive) |
| Cc1cccc(C(=O)NNC(=S)NC(=O)c2ccccc2)c1 | 5.31 kMESF (inactive) |
| COc1ccccc1N=Nc1ccc(O)c2ncccc12 | 5.16 kMESF (inactive) |
| Cc1ccc2c(c1)c(/C=C/c1cc[n+](C)cc1)c(C)n2C | 9.93 kMESF (inactive) |
| O=C(CSC1=NS(=O)(=O)c2ccccc21)Nc1ccccc1 | 2.66 kMESF (inactive) |
| COc1cccc(/C=C2\SC(=S)N(CCCC(=O)Nc3ccc(C(=O)O)cc3)C2=O)c1 | 1.55 kMESF (inactive) |
| CCC(=O)Nc1ccc(NC(=O)c2cc3ccccc3o2)cc1 | 2.2 kMESF (inactive) |
| Cc1cc(C2CCCCC2)n(O)c(=O)c1 | 5.36 kMESF (inactive) |
| COc1cc(CNC(=O)CCCCCCC(C)C)ccc1O | 2.32 kMESF (inactive) |
| Nc1nc2ncc(CNc3ccc(C(=O)N[C@@H](CCC(=O)O)C(=O)O)cc3)nc2c(=O)[nH]1 | 1.95 kMESF (inactive) |
| CN(C)C(=O)Oc1ccnc2cc(Cl)ccc12 | 3.58 kMESF (inactive) |
| CCCS(=O)(=O)c1nnnn1-c1cccc(OC)c1 | 2.18 kMESF (inactive) |
| COc1cccc(/C=C/C(=O)c2c(O)cc(C)oc2=O)c1O | 4.26 kMESF (inactive) |
| COc1ccc(C(=O)/C=C2/C(=O)Nc3ccccc32)cc1OC | 2.25 kMESF (inactive) |
| Cc1cccc(OCCN2CSC(=S)N(C)C2)c1 | 3.71 kMESF (inactive) |
| COc1ccc(C=C2C(=O)c3ccccc3C2=O)cc1O | 2.67 kMESF (inactive) |
| O=C(NNC(=S)NC(=O)C12CC3CC(CC(C3)C1)C2)c1ccncc1 | 6.72 kMESF (inactive) |

| SMILES | GFP fluorescence (kMESF), higher = increase |
| --- | --- |
| COc1cc(N=c2ssnc2Cl)cc(OC)c1 | 4.07 kMESF (inactive) |
| N#Cc1c2ccc([N+](=O)[O-])cc2[n+]([O-])n1-c1ccccc1 | 1.82 kMESF (inactive) |
| Cc1cc(C(=O)COC(=O)c2ccc[nH]c2=O)c(C)n1-c1ccccc1F | 1.88 kMESF (inactive) |
| CCOc1ccc(N2C(=O)/C(=C\c3cccs3)C(=O)NC2=S)cc1 | 3.57 kMESF (inactive) |
| O=C1C=CC(=O)N1c1ccc(OC(F)F)cc1 | 3.81 kMESF (inactive) |
| Cc1cc(C)c(S(=O)(=O)ON2C(=O)c3ccccc3C2=O)cc1C | 3.17 kMESF (inactive) |
| O=[N+]([O-])c1ccc(O)c(/C=N/Nc2ccccn2)c1 | 5.62 kMESF (inactive) |
| CCCCc1ccc(NC(=O)CC(C)=O)cc1 | 2.02 kMESF (inactive) |
| O=C(NCc1ccc2c(c1)OCO2)c1nc(S(=O)(=O)Cc2ccccc2)ncc1Cl | 2.56 kMESF (inactive) |
| Cn1ncc(S(=O)(=O)Cc2ccccc2)c(Cl)c1=O | 4.57 kMESF (inactive) |
| CC[C@]1(c2ccccc2OC)ON(c2ccccc2C(F)(F)F)C1=O | 4.31 kMESF (inactive) |
| COc1cccc2c(=O)c(C(=O)NCc3cccs3)c[nH]c12 | 1.57 kMESF (inactive) |
| CC1=C(C)/C(=N\OS(=O)(=O)c2ccc(C)cc2)C=CC1=O | 4.38 kMESF (inactive) |
| COc1ccc(-c2cc3nc4n(c(=O)c3s2)CCC4)cc1 | 1.07 kMESF (inactive) |
| O=C(Nc1nnc(-c2ccc(F)cc2)o1)c1cc(Cl)sc1Cl | 3.38 kMESF (inactive) |
| Cc1ccc(N2C(=O)CC(Sc3ncn[nH]3)C2=O)cc1C (configuration not stated) | 3.74 kMESF (inactive) |
| O=c1c2cc(Br)ccc2nc(-c2ccc([N+](=O)[O-])cc2)n1O | 3.87 kMESF (inactive) |
| COc1ccc(-c2cc3cc(C(=O)O)ccn3c2C(=O)c2ccccc2)cc1 | 3.23 kMESF (inactive) |
| CC(=O)N(\C=C/C=C/C=C1\Sc2ccccc2C1=O)c1ccccc1 | 8.76 kMESF (inactive) |
| Cc1ccccc1C(=O)NNC(=S)NC(=O)c1ccc(Cl)cc1Cl | 6.21 kMESF (inactive) |
| O=C(NC(=S)NNC(=O)c1cnccn1)c1ccc(F)cc1 | 4.26 kMESF (inactive) |

| SMILES | GFP fluorescence (kMESF), higher = increase |
| --- | --- |
| O=C(O)c1ccn2c(C(=O)c3ccccc3)c(-c3ccccc3)cc2c1 | 3.13 kMESF (inactive) |
| Cc1ccc(/C=N/Nc2ncc(Cl)cc2Cl)s1 | 4.77 kMESF (inactive) |
| Cc1ccc(N=c2ssnc2Cl)cc1 | 4.79 kMESF (inactive) |
| CC[C@H](C)/C=C(C)/C=C/C1=CC2=C(Cl)C(=O)[C@@](C)(OC(C)=O)C(=O)C2=CO1 | 0.91 kMESF (inactive) |
| C=CCOc1ccc(C(=O)/C=C2/C(=O)Nc3ccccc32)cc1 | 3.85 kMESF (inactive) |
| O=C1C(Cl)=C(N2CCN(Cc3ccccc3)CC2)C(=O)N1c1ccccc1 | 3.31 kMESF (inactive) |
| O=C1c2cccc3c([N+](=O)[O-])ccc(c23)C(=O)N1CCc1ccccn1 | 5.48 kMESF (inactive) |
| O=C(COc1ccccc1)N1CCN(c2ncnc3c2cnn3-c2ccccc2)CC1 | 1.97 kMESF (inactive) |
| C#CCOCCOCCOCCNc1nc(N2CCN(C(=O)CCCCCCCCCCNC(=O)[C@H](CCCCN)n3cc(CCO)nn3)CC2)nc(N2CCN(C(=O)CCCCCCCCCCNC(=O)[C@H](CCCN=C(N)N)n3cc(C[C@@H](C)CC)nn3)CC2)n1 | 3.54 kMESF (inactive) |
| CCOc1cc(C=C2C(=O)c3ccccc3C2=O)ccc1OCC(=O)Nc1ccc(C)cc1 | 1.75 kMESF (inactive) |
| CN(Cc1cnc2nc(N)nc(N)c2n1)c1ccc(C(=O)N[C@@H](CCC(=O)O)C(=O)O)cc1 | 2.67 kMESF (inactive) and 1.92 kMESF (inactive) |
| Clc1ccc(N=c2ssnc2Cl)cc1 | 4.8 kMESF (inactive) |
| Cc1cc(O)c(C(=O)/C=C/c2ccc(Cl)cc2)c(=O)o1 | 4.13 kMESF (inactive) |
| Cc1cc(C)c(OCC(=O)Nc2nc(-c3ccccn3)cs2)c(C)c1 | 2.37 kMESF (inactive) |
| O=C(c1ccc(Cl)cc1)N1CCN(c2cccc3[nH]ccc23)CC1 | 3.33 kMESF (inactive) |
| Cc1ccc(S(=O)(=O)ON2C(=O)c3ccccc3C2=O)c(C)c1 | 5.06 kMESF (inactive) |
| O=C(OCC(=O)N1CCN(C(=O)c2ccco2)CC1)c1cc(-c2ccc(Cl)c(Cl)c2Cl)nc2ccccc12 | 4.51 kMESF (inactive) |
| O=C(Nc1nnc(-c2ccc3c(c2)CCCC3)o1)c1ccc(Cl)cc1Cl | 3.77 kMESF (inactive) |
| O=C(/C=C/c1cccc(Cl)c1)c1nc2ccccc2[nH]1 | 3.3 kMESF (inactive) |
